IC50 and EC50 data for eleven molecules are collected here from patent US9169252B2 (BRISTOL-MYERS SQUIBB COMPANY, priority 2014, dated 2015).

The target in one experiment is IRAK4 (Homo sapiens (Human), UniProt Q9NWZ3). As to the kind of experiment: IRAK4 Inhibition Assay. The experiment is classed as biochemical. The note with it: IRAK4 Inhibition Assay; ATP 500 μM; read-out: IRAK4 IC50. In short, it runs like this:
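IRAK4 combined with fluorescent substrate and compounds, reacted 60 min at room temperature, stopped with 35 mM EDTA. Substrate and phosphorylated product separated electrophoretically on a Caliper LabChip 3000 mobility-shift reader.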

Experiment [1] has as its system TLR2 induced IL-6 in peripheral blood mononuclear cells (PBMCs). As to the kind of experiment: PBMC TLR2 Induced IL-6 Assay. Type of experiment: cell-based, human. Particulars: Homo sapiens, PBMC, PBMC TLR2 Induced IL-6 Assay; lipoteichoic acid stimulation, IL-6 by ELISA; read-out: Cell EC50. In a few lines:
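Lipoteichoic acid at 10 µg/ml served as TLR2 stimulus for 5 hours, following a 30-minute compound pretreatment at 37° C. Cells were Ficoll-isolated human PBMCs, 250000 cells/well, cultured in RPMI plus 10% heat-inactivated FCS.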
On the technique in general: ELISA stands for enzyme-linked immunosorbent assay.

Sequence of IRAK4 (Q9NWZ3 whole entry, species assumed): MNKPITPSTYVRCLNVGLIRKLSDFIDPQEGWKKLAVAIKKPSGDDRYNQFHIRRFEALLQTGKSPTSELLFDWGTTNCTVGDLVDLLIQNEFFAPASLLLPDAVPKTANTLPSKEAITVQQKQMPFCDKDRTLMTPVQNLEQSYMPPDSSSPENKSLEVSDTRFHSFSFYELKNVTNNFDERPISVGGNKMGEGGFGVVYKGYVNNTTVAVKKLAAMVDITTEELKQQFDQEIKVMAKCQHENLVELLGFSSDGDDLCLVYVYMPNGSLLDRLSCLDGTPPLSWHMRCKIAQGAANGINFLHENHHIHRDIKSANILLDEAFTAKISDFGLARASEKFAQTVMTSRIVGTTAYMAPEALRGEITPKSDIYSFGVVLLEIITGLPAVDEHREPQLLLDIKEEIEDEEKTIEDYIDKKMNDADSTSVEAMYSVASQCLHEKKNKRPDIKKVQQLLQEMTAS

In the case of `CC(C)(O)[C@H](F)CNC(=O)c1cnc(-n2ccc3cc(C(N)=O)cnc32)cc1NC1CCC1` [Example 124, (R)-1-(4-(Cyclobutylamino)-5-((2-fluoro-3-hydroxy-3-methylbutyl)carbamoyl)pyridin-2-yl)-1H-pyrrolo[2,3-b]pyridine-5-carboxamide], at IRAK4, the IC50 turned out to be 4.8 nM. Besides, in experiment [1], the half-maximal effective concentration (EC50) was found to be 119 nM.
For `CC(=O)OC(C)(C)C(=O)NCCNC(=O)c1cnc(-n2ccc3cc(C#N)cnc32)cc1NC(C)C` [Example 125, 1-((2-(6-(5-Cyano-1H-pyrrolo[2,3-b]pyridin-1-yl)-4-(isopropylamino)nicotinamido)ethyl)amino)-2-methyl-1-oxopropan-2-yl acetate] the same measures were 6.7 nM and 202 nM.
For `CC(C)Nc1cc(-n2ccc3cc(C#N)cnc32)ncc1C(=O)NCCNC(=O)C(C)(C)O` [Example 126, 6-(5-Cyano-1H-pyrrolo[2,3-b]pyridin-1-yl)-N-(2-(2-hydroxy-2-methylpropanamido)ethyl)-4-(isopropylamino)nicotinamide] the same measures were 7.5 nM and 150 nM.
Take `COC[C@H](F)CNC(=O)c1cnc(-n2ccc3cc(C#N)cnc32)cc1NC(C)C` [Example 127, (R)-6-(5-Cyano-1H-pyrrolo[2,3-b]pyridin-1-yl)-N-(2-fluoro-3-methoxypropyl)-4-(isopropylamino)nicotinamide]: the IC50 on IRAK4 turned out to be 2.8 nM. Besides, the EC50 in experiment [1] worked out at 89 nM.
In the case of `COC[C@H](F)CNC(=O)c1cnc(-n2ncc3cc(C#N)cnc32)cc1NC(C)C` [Example 128, (R)-6-(5-Cyano-1H-pyrazolo[3,4-b]pyridin-1-yl)-N-(2-fluoro-3-methoxypropyl)-4-(isopropylamino)nicotinamide], the IC50 on IRAK4 is 8.9 nM. For the same molecule, the EC50 in experiment [1] is 248 nM.
As to `CC(C)(O)[C@H](F)CNC(=O)c1cnc(-n2ccc3cc(C#N)cnc32)cc1NC(CO)CF` (stereo partly drawn) [Example 131, 6-(5-Cyano-1H-pyrrolo[2,3-b]pyridin-1-yl)-N—((R)-2-fluoro-3-hydroxy-3-methylbutyl)-4-((1-fluoro-3-hydroxypropan-2-yl)amino)nicotinamide], the IC50 on IRAK4 was found to be 6.8 nM. In addition, the EC50 in experiment [1] was 410 nM.
As for `CNC(=O)[C@H](F)CNC(=O)c1cnc(-n2ccc3cc(C#N)cnc32)cc1NC1CC1` [Example 132, (R)-6-(5-Cyano-1H-pyrrolo[2,3-b]pyridin-1-yl)-4-(cyclopropylamino)-N-(2-fluoro-3-(methylamino)-3-oxopropyl)nicotinamide], at IRAK4, the IC50 amounted to 4.7 nM. Also, the EC50 in experiment [1] stood at 92 nM.
Turning to `CC(C)Nc1cc(-n2ncc3cc(C#N)cnc32)ncc1C(=O)NC[C@@H](F)C(C)(C)O` [Example 133, (R)-6-(5-Cyano-1H-pyrazolo[3,4-b]pyridin-1-yl)-N-(2-fluoro-3-hydroxy-3-methylbutyl)-4-(isopropylamino)nicotinamide], the IC50 on IRAK4 turned out to be 2.6 nM. For the same molecule, the EC50 in experiment [1] came out at 120 nM.
For the molecule `CCNc1cc(-n2ncc3cc(C#N)cnc32)ncc1C(=O)NC[C@@H](F)C(C)(C)O` [Example 138, (R)-6-(5-cyano-1H-pyrazolo[3,4-b]pyridin-1-yl)-4-(ethylamino)-N-(2-fluoro-3-hydroxy-3-methylbutyl)nicotinamide], the IC50 on IRAK4 turned out to be 6.4 nM. Further, in experiment [1], the EC50 stood at 152 nM.
For `CC(C)(O)[C@H](F)CNC(=O)c1cnc(-n2ncc3cc(C#N)cnc32)cc1NC1CC1` [Example 139, (R)-6-(5-cyano-1H-pyrazolo[3,4-b]pyridin-1-yl)-4-(cyclopropylamino)-N-(2-fluoro-3-hydroxy-3-methylbutyl)nicotinamide] the same measures were 2.9 nM and 118 nM.
For `CNC(=O)[C@H]1CC[C@H](NC(=O)c2cnc(-n3ncc4cc(C#N)cnc43)cc2NC2CC2)CC1` [Example 140, 6-(5-cyano-1H-pyrazolo[3,4-b]pyridin-1-yl)-4-(cyclopropylamino)-N-((trans)-4-(methylcarbamoyl)cyclohexyl)nicotinamide] the same measures were 8.3 nM and 226 nM.

Broadly, the IC50 is the midpoint of a concentration-inhibition curve. The EC50 is the concentration at which the effect is half-maximal.
